Data on twelve molecules can be found in ChEMBL document CHEMBL3817834, “Scaffold morphing leading to evolution of 2,4-diaminoquinolines and aminopyrazolopyrimidines as inhibitors of the ATP synthesis pathway” (Medchemcomm, 2016).

Assay [1] relates to Mycobacterium tuberculosis. Nature of the assay: Antimycobacterial activity against Mycobacterium bovis BCG assessed as depletion of intracellular ATP level at 5 times antimycobacterial MIC after 20 hrs by luciferin/luciferase coupled reporter gene assay relative to control. The assay is classed as functional, variant bovis BCG. In general terms: Reporter assays use an easily measured gene product as a stand-in for the process of interest.

Assay [2] deals with Mycobacterium tuberculosis. Briefly: Induction of membrane damage in Mycobacterium bovis BCG incubated for 60 mins under dark condition using DiOC2 probe by fluorescence assay. The assay is classed as organism-based. Particulars: variant bovis BCG, 1 h.

A word on the IC50: it is the concentration at which inhibition is half-maximal. A lower IC50 goes with greater potency. As for `CN(C)CCOc1ncc(Nc2cc(-c3ccccc3)nc3cc(-c4ccc(F)cc4)nn23)cc1F`, in assay [1], the Activity is recorded as 25%. Moreover, the concentration for half-maximal inhibition (IC50) in assay [2] was over 100 µM.

Take `NNC(=O)c1ccncc1` [ISONIAZID]: in assay [1], the Activity was -6%.

Regarding `COc1nc2ccc(Br)cc2cc1[C@@H](c1ccccc1)[C@@](O)(CCN(C)C)c1cccc2ccccc12` [BEDAQUILINE], the Activity in assay [1] was found to be 76%. Moreover, the 50% inhibitory concentration (IC50) in assay [2] is over 100 µM.

In assay [2], `N#CC(C#N)=NNc1cccc(Cl)c1` [CARBONYL CYANIDE M-CHLOROPHENYLHYDRAZONE] showed a half-inhibitory concentration (IC50) of 3 µM.

As for `CCOc1ncc(Nc2nc(NCCC3CCOCC3)nc3cc(OC)c(OC)cc23)cc1F`, the Activity in assay [1] is 31%.

`COc1cc2nc(NCCC3CCOCC3)nc(Nc3cc(C(C)(C)C)n(C)n3)c2cc1OC` came in with an IC50 in assay [2] of over 100 µM.

With `CN(C)CCOc1ncc(Nc2cc(-c3ccccc3)nc3cc(-c4ccc(F)cc4)[nH]c23)cc1F`, the Activity in assay [1] was 23%. The IC50 in assay [2] is over 100 µM.

On to `CN(C)CCOc1ncc(Nc2cc(C(F)(F)F)nc3cc(-c4ccc(F)cc4)nn23)cc1F`, for which, in assay [2], the IC50 was over 100 µM.

Consider `CN(C)CCOc1ncc(Nc2cc(N3CCC(c4ccccc4Cl)C3)nc3cc(F)c(F)cc23)cc1F` (stereo not drawn), for which, in assay [1], the Activity turned out to be 25%. The molecule further returned an IC50 in assay [2] of over 100 µM.

Turning to `COc1cc2nc(N3CCC(c4ccccc4Cl)C3)cc(Nc3cnc(OCCN(C)C)c(F)c3)c2cc1OC` (stereo not drawn), the Activity in assay [1] was 68%. The IC50 in assay [2] was over 100 µM.

With `CCOc1ncc(Nc2cc(NCCC3CCOCC3)nc3cc(OC)c(OC)cc23)cc1F`, the Activity in assay [1] is listed as 5%. Moreover, in assay [2], the IC50 was over 100 µM.

`COc1cc2nc(N3CCC(c4ccccc4Cl)C3)cc(Nc3cnc(NCCN(C)C)c(F)c3)c2cc1OC` (stereo not drawn): the Activity in assay [1] was determined as 22%.
